Measurements from article PMC9027532, “Preclinical Pharmacokinetic Studies of a Novel Diuretic Inhibiting Urea Transporters” (Molecules, 2022).
Where “and” joins values, the source holds several entries; their conditions need not be identical. Equal entries are not always repeated.

Columns and labels:
[1] = Excretion experiment in rats (urine, feces); format: in vivo, SD rats; settings: single oral dose 100 mg/kg
Experimental: (§1) The cumulative excretion ratios of unchanged 25a in the urine, feces, and bile of rats after a single oral dose at 100 mg/kg were 0.14% ± 0.05%, 3.16% ± 0.96%, and 0.018% ± 0.006%, respectively (Figure 6 and Tables S5–S7). […] Further phenotyping and metabolite identification studies should be conducted to elucidate the major elimination forms of 25a in the future.
(§2) Four SD rats were adapted in metabolic cages for 3 days in advance and then administrated with 25a at 100 mg/kg orally. Feces and urine were collected and weighed at 0–6 h, 6–12 h, […], 24–36 h, 36–48 h, 48–60 h, and 60–72 h after administration. Parallelly, four SD rats received bile duct cannulation and were given a single dose of 25a at 100 mg/kg orally. Bile was collected and weighed at 0–2 h, 0–4 h, 0–6 h, 0–8 h, 0–10 h, 0–12 h, 0–24 h, 0–36 h, and 0–48 h after administration. All samples were stored at −80 °C until analysis.

[2] = Excretion experiment in bile duct cannulated rats (bile); format: in vivo, SD rats; settings: single oral dose 100 mg/kg
Experimental: as §1, §2

CC(=O)Nc1ccc(NC(=O)c2ccc(C(C)=O)o2)cc1 [Compound 25a, N-(4-acetamidophenyl)-5-acetylfuran-2-carboxamide]
total cumulative excretion fractions of unchanged 25a in urine, feces, and bile [1]: less than 5%
Accumulated Amount in feces ([1]; 0-6 h): 0.248 ± 0.056 mg
Accumulated Amount in urine ([1]; 0-6 h): 0.0129 ± 0.0059 mg
Concentration in feces ([1]; 0-6 h): 6547.5 ± 1407.8 ng/mL
Concentration in urine ([1]; 0-6 h): 1865.0 ± 576.4 ng/mL
The cumulative excretion ratio in feces ([1]; 0-6 h): 1.009 ± 0.233%
The cumulative excretion ratio in urine ([1]; 0-6 h): 0.051 ± 0.021%
cumulative excretion ratio of unchanged 25a in feces ([1]; 100 mg/kg): 3.16% and 3.16% ± 0.96%
cumulative excretion ratio of unchanged 25a in urine ([1]; 100 mg/kg): 0.14% and 0.14% ± 0.05%
Accumulated Amount in feces ([1]; 6-12 h): 0.565 ± 0.130 mg
Accumulated Amount in urine ([1]; 6-12 h): 0.0221 ± 0.0046 mg
Concentration in feces ([1]; 6-12 h): 9237.5 ± 2337.8 ng/mL
Concentration in urine ([1]; 6-12 h): 1696.3 ± 1,244.3 ng/mL
The cumulative excretion ratio in feces ([1]; 6-12 h): 2.261 ± 0.383%
The cumulative excretion ratio in urine ([1]; 6-12 h): 0.089 ± 0.018%
Accumulated Amount in feces ([1]; 12-24 h): 0.798 ± 0.309 mg
Accumulated Amount in urine ([1]; 12-24 h): 0.0305 ± 0.0066 mg
Concentration in feces ([1]; 12-24 h): 6053.3 ± 4545.2 ng/mL
Concentration in urine ([1]; 12-24 h): 869.3 ± 442.0 ng/mL
The cumulative excretion ratio in feces ([1]; 12-24 h): 3.139 ± 0.954%
The cumulative excretion ratio in urine ([1]; 12-24 h): 0.125 ± 0.037%
Accumulated Amount in feces ([1]; 24-36 h): 0.802 ± 0.310 mg
Accumulated Amount in urine ([1]; 24-36 h): 0.0317 ± 0.0077 mg
Concentration in feces ([1]; 24-36 h): 188.2 ± 121.9 ng/mL
Concentration in urine ([1]; 24-36 h): 132.4 ± 108.1 ng/mL
The cumulative excretion ratio in feces ([1]; 24-36 h): 3.153 ± 0.957%
The cumulative excretion ratio in urine ([1]; 24-36 h): 0.131 ± 0.042%
Accumulated Amount in feces ([1]; 36-48 h): 0.802 ± 0.310 mg
Accumulated Amount in urine ([1]; 36-48 h): 0.0327 ± 0.0085 mg
Concentration in feces ([1]; 36-48 h): 7.0 ± 8.8 ng/mL
Concentration in urine ([1]; 36-48 h): 104.4 ± 95.7 ng/mL
The cumulative excretion ratio in feces ([1]; 36-48 h): 3.155 ± 0.956%
The cumulative excretion ratio in urine ([1]; 36-48 h): 0.135 ± 0.047%
Accumulated Amount in feces ([1]; 48-60 h): 0.802 ± 0.310 mg
Accumulated Amount in urine ([1]; 48-60 h): 0.0332 ± 0.0089 mg
Concentration in feces ([1]; 48-60 h): 2.1 ± 3.1 ng/mL
Concentration in urine ([1]; 48-60 h): 49.6 ± 31.9 ng/mL
The cumulative excretion ratio in feces ([1]; 48-60 h): 3.155 ± 0.956%
The cumulative excretion ratio in urine ([1]; 48-60 h): 0.137 ± 0.049%
Accumulated Amount in feces ([1]; 60-72 h): 0.802 ± 0.310 mg
Accumulated Amount in urine ([1]; 60-72 h): 0.0337 ± 0.0090 mg
Concentration in feces ([1]; 60-72 h): 3.8 ± 3.8 ng/mL
Concentration in urine ([1]; 60-72 h): 32.5 ± 11.2 ng/mL
The cumulative excretion ratio in feces ([1]; 60-72 h): 3.156 ± 0.955%
The cumulative excretion ratio in urine ([1]; 60-72 h): 0.139 ± 0.049%
Accumulated Amount in bile ([2]; 0-2 h): 0.531 ± 0.233 µg
Concentration in bile ([2]; 0-2 h): 220.5 ± 44.4 ng/mL
The cumulative excretion ratio in bile ([2]; 0-2 h): 0.0022 ± 0.0011%
Accumulated Amount in bile ([2]; 0-4 h): 1.138 ± 0.434 µg
Concentration in bile ([2]; 0-4 h): 192.3 ± 52.3 ng/mL
The cumulative excretion ratio in bile ([2]; 0-4 h): 0.0048 ± 0.0022%
Accumulated Amount in bile ([2]; 0-6 h): 1.451 ± 0.481 µg
Concentration in bile ([2]; 0-6 h): 161.3 ± 55.4 ng/mL
The cumulative excretion ratio in bile ([2]; 0-6 h): 0.0061 ± 0.0023%
Accumulated Amount in bile ([2]; 0-8 h): 1.783 ± 0.489 µg
Concentration in bile ([2]; 0-8 h): 169.5 ± 57.2 ng/mL
The cumulative excretion ratio in bile ([2]; 0-8 h): 0.0074 ± 0.0023%
Accumulated Amount in bile ([2]; 0-10 h): 2.215 ± 0.603 µg
Concentration in bile ([2]; 0-10 h): 156.8 ± 23.8 ng/mL
The cumulative excretion ratio in bile ([2]; 0-10 h): 0.0092 ± 0.0026%
Accumulated Amount in bile ([2]; 0-12 h): 2.888 ± 0.929 µg
Concentration in bile ([2]; 0-12 h): 147.3 ± 27.7 ng/mL
The cumulative excretion ratio in bile ([2]; 0-12 h): 0.0120 ± 0.0043%
Accumulated Amount in bile ([2]; 0-24 h): 3.664 ± 1.010 µg
Concentration in bile ([2]; 0-24 h): 83.5 ± 19.9 ng/mL
The cumulative excretion ratio in bile ([2]; 0-24 h): 0.0152 ± 0.0045%
Accumulated Amount in bile ([2]; 0-36 h): 4.113 ± 1.058 µg
Concentration in bile ([2]; 0-36 h): 40.7 ± 21.1 ng/mL
The cumulative excretion ratio in bile ([2]; 0-36 h): 0.0171 ± 0.0049%
Accumulated Amount in bile ([2]; 0-48 h): 4.300 ± 1.184 µg
Concentration in bile ([2]; 0-48 h): 17.9 ± 17.1 ng/mL
The cumulative excretion ratio in bile ([2]; 0-48 h): 0.0179 ± 0.0057%
cumulative excretion ratio of unchanged 25a in bile ([2]; 100 mg/kg): 0.018% and 0.018% ± 0.006%
